Assay results taken from publication PMC7911516, “Investigation of the Factors Responsible for the Poor Oral Bioavailability of Acacetin in Rats: Physicochemical and Biopharmaceutical Aspects” (Pharmaceutics, 2021).

How the values were obtained:
[1] = Parallel artificial membrane permeability assay (PAMPA); format: in vitro ADME; conditions: GIT PAMPA Double Sink
Description: Simulated intestinal fluid (SIF) was prepared by dissolving 3 mM sodium taurocholate and 0.1% (w/v) pancreatin in phosphate buffer (final pH = 7.0). The solubility of acacetin was measured by adding excessive amounts of acacetin into glass vials containing 1.5 mL of water, pH 7.4 phosphate buffer, SGF, and SIF. […] The samples were centrifuged at 16,000× g for 5 min, and the supernatant was passed through a 0.20-μm syringe filter to remove excess acacetin. Further, the concentration of acacetin in the filtrate was determined using the LC-MS/MS method. […] Finally, the acacetin concentrations in the octanol and water layers were determined using the LC-MS/MS method. […] The PAMPA was conducted using a commercially available PAMPA kit (GIT PAMPA Double Sink; pION Inc., Massachusetts, MA, USA) according to the manufacturer's protocol. The permeability was calculated using pION PAMPA Explorer ver. 3.8 software (pION Inc., Massachusetts, MA, USA).

[2] = In situ closed-loop study (jejunal loop); format: in vivo, rat
Description: The in situ closed-loop study was performed as previously described with slight modification. Briefly, after minimal abdominal incision under light ether anesthetization and sufficient washing of the contents within the GI tract, the jejunal loop was closed by ligation performed at approximately 2 cm distal to both ends of each jejunal section. Acacetin suspension (final concentration: 1 mg/mL) was prepared by dispersing acacetin powder in the vehicle solution for oral study and subsequently diluting it 5-fold with the SIF (final composition: 2% DMSO, 1% EtOH, and 17% PEG400 in the SIF). After injecting 0.2 mL of acacetin suspension into each loop using a l-mL 31-gauge syringe, the whole GI tract was carefully returned to its original position in the abdominal cavity. At 4 h after the injection, each loop was removed, transferred into a beaker containing 50 mL of methanol, and handled similar to the GI samples in the in vivo pharmacokinetic study. As control (in vitro isolated loop) groups, the jejunal closed-loop was prepared in the same manner as the in situ loop study, removed from the rat intestinal tract using scissors with special care not to damage the loop, and transferred to a glass beaker. Then, acacetin dispersed in the vehicle was injected into the isolated loop. After 0-h and 4-h incubation at 37 °C, the remaining fraction of acacetin in the isolated loop was measured in the same manner as the procedure for the GI sample in the in vivo pharmacokinetic study.

[3] = Disappearance in rat plasma and tissue S9 fractions; format: in vitro ADME; conditions: 10 μM, 5 min, S9 0.5 mg/mL, NADPH or UDPGA/alamethicin
Description: The rat gut, spleen, kidney, liver, heart, brain, and lung were excised after cervical dislocation, rinsed with cold saline, blotted dry with tissue paper, and weighed. Each tissue sample was homogenized using a homogenizer (Ultra-Turrax T10 basi; IKA-Werke GmbH & Co. KG, Staufen, Germany) in cold 0.25 M sucrose solution. The homogenate was centrifuged at 9000× g for 30 min, and the supernatant fraction was stored at −80 °C until further use. The reaction mixture consisted of substrate, plasma, or tissue S9 fractions (protein concentration: 0.5 mg/mL) and NADPH (1 mM) or UDPGA (2 mM) in Tris buffer (100 mM; pH 7.4). After preincubation at 37 °C for 5 min, acacetin (final concentration: 10 μM) was added to initiate the enzyme reaction. After 5 min of incubation with shaking at 37 °C, the reaction was terminated by mixing the reaction mixture with acetonitrile containing IS (volume four times that of the reaction mixture). After vortex-mixing and centrifugation at 16,000× g for 10 min, 100 μL of the supernatant was obtained and stored at −80 °C until further LC-MS/MS assay.

rat CYP2C = experiment: Disappearance in RLM with CYP isoform-selective inhibitor SPZ; format: in vitro ADME; conditions: acacetin 20 μM, 10-μM SPZ, NADPH, 5 min
Description: (§1) To investigate hepatic phase I enzymes- and UGT-dependent metabolism of acacetin, the disappearance rate of acacetin at concentrations of 1–200 µM in RLM was measured in the presence of both NADPH and UDPGA. The substrate (acacetin) concentration ((S); µM) versus the initial metabolic rate (V; nmol/min/mg protein) profiles were interpreted based on Michaelis–Menten kinetics, and relevant parameters were estimated via nonlinear regression analysis (GraphPad Prism ver. 5.01; GraphPad Software, San Diego, CA, USA) using the following Michaelis–Menten equation: V = Vmax× [S]/Km× [S] where Km and Vmax are the Michaelis–Menten constant and maximal metabolic rate, respectively. The unbound intrinsic metabolic clearance (CLint) was calculated as Vmax/(Km × fuMIC). Furthermore, the disappearance of acacetin (20 μM) in the absence or presence of specific CYP isoform-selective inhibitors in RLM was determined to study the hepatic CYP-mediated metabolism of acacetin. Microsomal incubation mixtures (total volume of 200 μL) were prepared as follows: RLM (0.5 mg/mL microsomal protein), 1 mM NADPH, 10 mM MgCl2, 50 mM potassium phosphate buffer, acacetin, with or without CYP isoform-selective inhibitors (10 μM NF for rat CYP1A, 10-μM SPZ for rat CYP2C, 10-μM QND for rat CYP2D, and 10-μM KCZ for rat CYP3A). […]

rat CYP3A = experiment: Disappearance in RLM with CYP isoform-selective inhibitor KCZ; format: in vitro ADME; conditions: acacetin 20 μM, 10-μM KCZ, NADPH, 5 min
Description: as §1

[4] = set-up: method as in PMID 28421306; conditions: oral, 5 mg/kg in mice; cited from earlier work
Caco-2 cell = system: Caco-2 cell; set-up: method as in PMID 22292790; conditions: cited from earlier work

Papp [1]: 8.06 ± 0.91 ×10⁻⁶ cm/s
Fraction of dose eliminated by GI and hepatic first-pass metabolism ([2]; = 2.9 − 2.34): 0.56 % of the dose
Fraction unabsorbed from the GI tract ([2]; =100 − 2.9): 97.1 % of the dose
Portion absorbed from the loop ([2]; difference isolated loop vs in situ loop): 2.9%
Remaining fraction in the in vitro isolated loop ([2]; jejunal loop, 4-h incubation at 37 °C): 78.9%
Remaining fraction in the in situ loop ([2]; rat jejunal loop, 4 h after injection): 76.0%
Reduction of relative disappearance rate in presence of SPZ (rat CYP2C): 25.8%
Reduction of relative disappearance rate in presence of KCZ (rat CYP3A): 43.7%
SMILES: COc1ccc(-c2cc(=O)c3c(O)cc(O)cc3o2)cc1 [acacetin, Acacetin]
Tissue-dependent metabolizing activity (disappearance rate) [3]: the liver exhibited significantly higher metabolizing activity than all the tested tissues
Cmax [4]: 17 ng/mL
F [4]: 1.30%
Caco-2 cell permeability (Caco-2 cell): 2.81 × 10^–6 cm/s
